Assay [1] relates to phenylephrine contracted canine carotid artery ring preparation. The experiment in a line: Contraction force and vasorelaxation in phenylephrine contracted canine carotid artery ring preparation. Conditions: for force after HEPES buffer was added: ethanol 2×10^−7 mol/L control group, HEPES buffer instead of Lzm-S.
Assay [2] relates to Lzm-S-induced carotid artery vasodilation. The experiment in a line: Prevention of Lzm-S-induced vasodilation by pretreatment agents in the carotid artery ring preparation. Further details: species or system canine. The following applies: for inhibition of Lzm-S-induced vasodilation (words): pretreatment with the agent, human Lzm-S 6.7×10^−7 mol/L, phenylephrine contracted ring; for contraction after Lzm-S relative to the post-indomethacin plateau: indomethacin 10^−6 mol/L treated group (n=5); for contraction after Lzm-S, % of the butanol-plateau: n-butanol pretreated.

For the compound `CCO` [ethanol], the “force after HEPES buffer was added” value in assay [1] (5 minutes) is reported as 10.7±2.8 grams; in assay [1] (15 minutes), 11±2.8 grams; in assay [1] (30 minutes), 11±2.6 grams. Moreover, the “contraction with ethanol as compared with the phenylephrine contraction alone” value in assay [1] (ethanol treated control group, ethanol highest concentration 2×10^−7 mol/L, before HEPES buffer) turned out to be 10±2.6 grams. Also, in assay [1] (higher concentrations of ethanol, before Lzm-S), the “initial effect of ethanol on force” value was “initial vasoconstriction”. Besides, the “inhibition of Lzm-S-induced vasodilation (words)” value (shortened to “inhibition”) in assay [2] is reported as “inhibited the effect of lysozyme”; in assay [2] (listed as Ethanol) it was “markedly effective”.

Turning to `COc1ccc2c(c1)c(CC(=O)O)c(C)n2C(=O)c1ccc(Cl)cc1` [indomethacin], the “force over 30 minutes when indomethacin was added” value in assay [1] (indomethacin 10^−6 mol/L after phenylephrine, before Lzm-S) is recorded as 5.6±0.5 grams. The entries for the “contraction after Lzm-S relative to the post-indomethacin plateau” value in assay [2] (5 minutes), in assay [2] (15 minutes) and in assay [2] (30 minutes) were 79±11%, 57±24% and 39±25%, respectively. In assay [2], the “inhibition” value is reported as “did not Prevent Vasodilation”.

On to `CCCCO` [n-butanol], for which the “force after the alcohol was added, % of the phenylephrine-plateau response” value in assay [1] (n-butanol (10^−7 mol/L), before Lzm-S) was determined as 61±17%. For the same compound, the figures for the “contraction after Lzm-S, % of the butanol-plateau” value in assay [2] (5 minutes), in assay [2] (15 minutes) and in assay [2] (30 minutes) were 84±9%, 62±21% and 23±27%, respectively. In addition, the “inhibition” value in assay [2] is “no inhibitory effect”.

The values are drawn from patent publication US20110014174A1, “Lysozyme, A Novel Vasodilator of Sepsis that can be inhibited by a Peroxidase and Hydroxyl Radical Scavengers” (UNIVERSITY OF MANITOBA, priority 2007, published 2011).
